In US9540392B2, “Thienopyrimidines” (BAYER PHARMA AKTIENGESELLSCHAFT, priority 2012, dated 2017) one finds IC50 data, which are given here for 11 compounds.

In the test the target is T1, human full-length MKNK1 (Homo sapiens, UniProt Q9BUB5, T385D).
T1 construct: GST (N); purchased Carna Biosciences 02-145; host or cells: insect cells (baculovirus expression system)
T1 sequence (Q9BUB5 1-424 isoform Q9BUB5-2 T344D): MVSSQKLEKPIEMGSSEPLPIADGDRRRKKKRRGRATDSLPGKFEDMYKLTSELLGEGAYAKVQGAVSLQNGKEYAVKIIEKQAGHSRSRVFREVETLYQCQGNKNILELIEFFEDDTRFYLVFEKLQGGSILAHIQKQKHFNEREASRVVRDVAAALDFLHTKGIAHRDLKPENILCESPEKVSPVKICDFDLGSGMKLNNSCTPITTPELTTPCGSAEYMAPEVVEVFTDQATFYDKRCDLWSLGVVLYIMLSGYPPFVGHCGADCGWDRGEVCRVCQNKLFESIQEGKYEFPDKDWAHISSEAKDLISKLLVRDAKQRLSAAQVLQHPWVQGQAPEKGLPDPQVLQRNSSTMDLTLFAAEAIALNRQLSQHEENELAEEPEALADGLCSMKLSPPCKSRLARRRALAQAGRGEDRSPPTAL
As to the kind of experiment: MKNK1 kinase high ATP assay (TR-FRET). The note with it: 2 mM ATP, after preincubation with MKNK1; read-out: MKNK1 IC50 (MKNK1 high ATP). In kind it is biochemical. How it is done:
MKNK1-inhibitory activity at high ATP of compounds of the present invention after their preincubation with MKNK1 was quantified employing the TR-FRET-based MKNK1 high ATP assay as described in the following paragraphs.
As substrate for the kinase reaction the biotinylated peptide biotin-Ahx-[…] (C-terminus in amide form) was used, which can be purchased e.g. from the company Biosyntan (Berlin-Buch, Germany).
For the assay 50 nL of a 100 fold concentrated solution of the test compound in DMSO was pipetted into a black low volume 384 well microtiter plate (Greiner Bio-One, Frickenhausen, Germany), 2 μL of a solution of MKNK1 in aqueous assay buffer [50 mM HEPES pH 7.5, 5 mM MgCl2, 1.0 mM dithiothreitol, 0.005% (v/v) Nonidet-P40 (Sigma)] was added and the mixture was incubated for 15 min at 22° C. to allow pre-binding of the test compounds to the enzyme before the start of the kinase reaction. Then the kinase reaction was started by the addition of 3 μL of a solution of adenosine-tri-phosphate (ATP, 3.3 mM=>final conc. in the 5 μL assay volume is 2 mM) and substrate (0.1 μM=>final conc. in the 5 μL assay volume is 0.06 μM) in assay buffer and the resulting mixture was incubated for a reaction time of 30 min at 22° C. The concentration of MKNK1 was adjusted depending of the activity of the enzyme lot and was chosen appropriate to have the assay in the linear range, typical concentrations were in the range of 0.003 μg/mL. The reaction was stopped by the addition of 5 μL of a solution of TR-FRET detection reagents (5 nM streptavidine-XL665 [Cisbio Bioassays, Codolet, France] and 1 nM anti-ribosomal protein S6 (pSer236)-antibody from Invitrogen [#44921G] and 1 nM LANCE EU-W1024 Labeled ProteinG [Perkin-Elmer, product no. AD0071]) in an aqueous EDTA-solution (100 mM EDTA, 0.1% (w/v) bovine serum albumin in 50 mM HEPES pH 7.5).
The resulting mixture was incubated for 1 h at 22° C. to allow the formation of complex between the phosphorylated biotinylated peptide and the detection reagents. Subsequently the amount of phosphorylated substrate was evaluated by measurement of the resonance energy transfer from the Eu-chelate to the streptavidine-XL. Therefore, the fluorescence emissions at 620 nm and 665 nm after excitation at 350 nm were measured in a TR-FRET reader, e.g. a Rubystar (BMG Labtechnologies, Offenburg, Germany) or a Viewlux (Perkin-Elmer). The ratio of the emissions at 665 nm and at 622 nm was taken as the measure for the amount of phosphorylated substrate.
(In TR-FRET formats the signal depends on donor and acceptor labels being close together.)
With `O=C(NCc1cccnc1)C1CCc2c(sc3ncnc(Nc4ccc5[nH]ncc5c4)c23)C1` (centres unmarked) [Example 32, 4-(1H-Indazol-5-ylamino)-N-(pyridin-3-ylmethyl)-5,6,7,8-tetrahydro[1] benzothieno [2,3-d]pyrimidine-7-carboxamide], the IC50 (in general, the concentration needed to halve the response being measured) amounted to 0.005 µM.
As for `CCOc1cc2[nH]ncc2cc1Nc1ncnc2sc3c(c12)CCC(C(=O)N(C)CCNC(=O)OC(C)(C)C)C3` (racemic) [Example 268, (RS)-tert-Butyl {2-[({4-[(6-ethoxy-1H-indazol-5-yl)amino]-5,6,7,8-tetrahydro[1]benzothieno[2,3-d]pyrimidin-7-yl}carbonyl)(methyl)amino]ethyl}carbamate], the figure is 0.0004 µM; as for `Cc1ccccc1N1CCN(C(=O)C2CCc3c(sc4ncnc(Nc5ccc6[nH]ncc6c5)c34)C2)CC1` (racemic) [Example 110, (R)S-[4-(1H-indazol-5-ylamino)-5,6,7,8-tetrahydro[1]benzothieno[2,3-d]pyrimidin-7-yl][4-(2-methylphenyl)piperazin-1-yl]methanone], 0.132 µM.
For `O=C(Nc1ccccn1)C1CCc2c(sc3ncnc(Nc4ccc5[nH]ncc5c4)c23)C1` (racemic) [Example 99, (RS)-4-(1H-indazol-5-ylamino)-N-(pyridin-2-yl)-5,6,7,8-tetrahydro[1]benzothieno[2,3-d]pyrimidine-7-carboxamide] the value was 0.0277 µM.
`Cn1nccc1NC(=O)C1CCc2c(sc3ncnc(Nc4ccc5[nH]ncc5c4)c23)C1` (racemic) [Example 117, (RS)-4-(1H-indazol-5-ylamino)-N-(1-methyl-1H-pyrazol-5-yl)-5,6,7,8-tetrahydro[1]benzothieno[2,3-d]pyrimidine-7-carboxamide]: the 50% inhibitory concentration (IC50) worked out at 0.0112 µM.
Regarding `O=C(C1CCc2c(sc3ncnc(Nc4ccc5[nH]ncc5c4)c23)C1)N1CCCCC1` (racemic) [Example 82, (RS)-[4-(1H-indazol-5-ylamino)-5,6,7,8-tetrahydro[1]benzothieno[2,3-d]pyrimidin-7-yl](piperidin-1-yl)methanone], the 50% inhibitory concentration (IC50) is 0.0146 µM.
On to `CC(=O)N1CCN(C(=O)C2CCc3c(sc4ncnc(Nc5ccc6[nH]ncc6c5)c34)C2)CC1` (racemic) [Example 97, (RS)-1-(4-{[4-(1H-indazol-5-ylamino)-5,6,7,8-tetrahydro[1]benzothieno[2,3-d]pyrimidin-7-yl]carbonyl}piperazin-1-yl)ethanone], for which the IC50 amounted to 0.0203 µM.
For `COCCNC(=O)C1CCc2c(sc3ncnc(Nc4ccc5[nH]ncc5c4)c23)C1` (centres unmarked) [Example 50, 4-(1H-Indazol-5-ylamino)-N-(2-methoxyethyl)-5,6,7,8-tetrahydro[1] benzothieno [2,3-d]pyrimidine-7-carboxamide] the value was 0.014 µM.
Take `O=C(C1CCc2c(sc3ncnc(Nc4ccc5[nH]ncc5c4)c23)C1)N1CCCC(CO)C1` (racemic) [Example 88, (RS)-[3-(hydroxymethyl)piperidin-1-yl][4-(1H-indazol-5-ylamino)-5,6,7,8-tetrahydro[1]benzothieno[2,3-d]pyrimidin-7-yl]methanone]: the half-maximal inhibitory concentration (IC50) is 0.0099 µM.
As for `CN(C)C(=O)CN(C)C(=O)C1CCc2c(sc3ncnc(Nc4ccc5[nH]ncc5c4)c23)C1` (racemic) [Example 120, (RS)-N-[2-(dimethylamino)-2-oxoethyl]-4-(1H-indazol-5-ylamino)-N-methyl-5,6,7,8-tetrahydro[1]benzothieno[2,3-d]pyrimidine-7-carboxamide], the IC50 is 0.0083 µM.
As to `CCOc1cc2[nH]ncc2cc1Nc1ncnc2sc3c(c12)CCC(C(=O)N1CCC1)C3` (racemic) [Example 223, (RS)-Azetidin-1-yl{4-[(6-ethoxy-1H-indazol-5-yl)amino]-5,6,7,8-tetrahydro[1]benzothieno[2,3-d]pyrimidin-7-yl}methanone], the concentration for half-maximal inhibition (IC50) was 0.0015 µM.
